T1: AaPFK (Aedes aegypti phosphofructokinase) (Aedes aegypti, UniProt A0A903U8I9)
T1 construct: gene 5568472; native enzyme in supernatant of whole-insect homogenate, not purified
T1 sequence (A0A903U8I9 1-790): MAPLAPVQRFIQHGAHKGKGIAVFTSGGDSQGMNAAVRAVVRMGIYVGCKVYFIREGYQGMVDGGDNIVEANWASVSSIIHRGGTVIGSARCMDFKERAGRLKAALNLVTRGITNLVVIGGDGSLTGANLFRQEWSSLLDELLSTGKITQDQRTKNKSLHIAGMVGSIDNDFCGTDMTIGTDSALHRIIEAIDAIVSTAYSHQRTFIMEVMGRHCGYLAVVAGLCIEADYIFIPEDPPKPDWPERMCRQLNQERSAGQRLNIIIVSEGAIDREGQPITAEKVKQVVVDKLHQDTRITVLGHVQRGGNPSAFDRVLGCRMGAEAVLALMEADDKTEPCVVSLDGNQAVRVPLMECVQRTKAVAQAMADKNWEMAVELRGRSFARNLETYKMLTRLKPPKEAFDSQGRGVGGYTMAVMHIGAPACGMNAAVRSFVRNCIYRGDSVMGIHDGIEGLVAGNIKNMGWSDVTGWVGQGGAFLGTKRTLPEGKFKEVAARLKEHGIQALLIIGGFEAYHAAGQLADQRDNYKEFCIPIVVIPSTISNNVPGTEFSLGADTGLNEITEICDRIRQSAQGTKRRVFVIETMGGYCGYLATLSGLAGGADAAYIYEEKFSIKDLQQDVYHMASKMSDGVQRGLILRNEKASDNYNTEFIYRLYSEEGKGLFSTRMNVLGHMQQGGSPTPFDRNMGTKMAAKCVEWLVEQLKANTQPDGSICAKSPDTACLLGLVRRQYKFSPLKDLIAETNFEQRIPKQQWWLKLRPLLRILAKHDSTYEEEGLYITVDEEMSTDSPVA

B1: AaPFK (Aedes aegypti phosphofructokinase) (Aedes aegypti) (protein)
chain: MAPLAPVQRFIQHGAHKGKGIAVFTSGGDSQGMNAAVRAVVRMGIYVGCKVYFIREGYQGMVDGGDNIVEANWASVSSIIHRGGTVIGSARCMDFKERAGRLKAALNLVTRGITNLVVIGGDGSLTGANLFRQEWSSLLDELLSTGKITQDQRTKNKSLHIAGMVGSIDNDFCGTDMTIGTDSALHRIIEAIDAIVSTAYSHQRTFIMEVMGRHCGYLAVVAGLCIEADYIFIPEDPPKPDWPERMCRQLNQERSAGQRLNIIIVSEGAIDREGQPITAEKVKQVVVDKLHQDTRITVLGHVQRGGNPSAFDRVLGCRMGAEAVLALMEADDKTEPCVVSLDGNQAVRVPLMECVQRTKAVAQAMADKNWEMAVELRGRSFARNLETYKMLTRLKPPKEAFDSQGRGVGGYTMAVMHIGAPACGMNAAVRSFVRNCIYRGDSVMGIHDGIEGLVAGNIKNMGWSDVTGWVGQGGAFLGTKRTLPEGKFKEVAARLKEHGIQALLIIGGFEAYHAAGQLADQRDNYKEFCIPIVVIPSTISNNVPGTEFSLGADTGLNEITEICDRIRQSAQGTKRRVFVIETMGGYCGYLATLSGLAGGADAAYIYEEKFSIKDLQQDVYHMASKMSDGVQRGLILRNEKASDNYNTEFIYRLYSEEGKGLFSTRMNVLGHMQQGGSPTPFDRNMGTKMAAKCVEWLVEQLKANTQPDGSICAKSPDTACLLGLVRRQYKFSPLKDLIAETNFEQRIPKQQWWLKLRPLLRILAKHDSTYEEEGLYITVDEEMSTDSPVA

How the values were obtained:
[1] = target: T1, AaPFK (Aedes aegypti phosphofructokinase); test: coupled NADH oxidation assay (aldolase/TPI/alpha-GPDH), […] nm; assay type: biochemical; conditions: substrate inhibition, allosteric, second site; 1 mM F6P, 5 mM MgCl2, pH 7.4; crude extract; unit not printed (ATP range given in mM)
[2] = substrate: Nc1ncnc2c1ncn2[C@@H]1O[C@H](COP(=O)(O)OP(=O)(O)OP(=O)(O)O)[C@@H](O)[C@H]1O; test: cells, lysate or membranes; conditions: 1 mM F6P, 5 mM MgCl2, pH 7.4 (Fig. 1 legend: pH 8.0); crude extract; Table 1 labels this number Kprime = K0.5^h with h 0.741

Molecule	ATP / Activity [U (mg protein) ^-1] [1]	K0.5 [2]
Nc1ncnc2c1ncn2[C@@H]1O[C@H](COP(=O)(O)OP(=O)(O)OP(=O)(O)O)[C@@H](O)[C@H]1O [ATP]	4.536 ± 0.178	–
B1	–	0.43 ± 0.10 mM
